Test results taken from US20250346593A1, “IMIDAZO(1,2-1)PYRIDINE DERIVATIVES AS RIPK2 INHIBITORS” (Interline Therapeutics, Inc., priority 2022, published 2025).
pIC50: −log10 of the molar value. Read-outs that look alike come from different tables or passages of the source.

Legend:
[1] = target: GST-RIPK2 fusion protein (human RIPK2 amino acids 1-310) (Homo sapiens (Human), UniProt O43353); experiment: RIPK2 binding competition assay (TR-FRET, Tracer 199)
[2] = test system: NF-κB pathway (SEAP) in THP1-Dual cells; experiment: THP-1 Dual cell SEAP assay (L18-MDP stimulated); format: cell-based; settings: read-out: NFkB THP1 IC50
[3] = read-out: RIPK2 IC50, RIPK2 binding competition assay

GST-RIPK2 fusion protein (human RIPK2 amino acids 1-310), sequence (O43353 1-310): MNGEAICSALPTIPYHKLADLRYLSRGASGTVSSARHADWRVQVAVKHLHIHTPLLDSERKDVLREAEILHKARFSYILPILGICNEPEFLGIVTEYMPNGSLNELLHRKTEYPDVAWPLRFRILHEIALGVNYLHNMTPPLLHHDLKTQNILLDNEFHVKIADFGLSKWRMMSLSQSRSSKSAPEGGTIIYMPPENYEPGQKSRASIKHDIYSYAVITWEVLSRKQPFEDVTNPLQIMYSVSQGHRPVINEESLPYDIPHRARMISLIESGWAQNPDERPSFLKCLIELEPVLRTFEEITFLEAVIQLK

pIC50 [2] | pIC50 [1] | pIC50 ([2]; Homo sapiens, THP1-Dual) | SMILES | pIC50 [1, 3]
– | 8.60 to 9.00 | 6.60 to 7.30 | CCCS(=O)(=O)Nc1cc(-c2cnc3cc(OC)c(S(=O)(=O)C(C)(C)C)cn23)cc(F)c1OC(F)F [Example 284, N-(5-(6-(tert-butylsulfonyl)-7-methoxyimidazo[1,2-a]pyridin-3-yl)-2-(difluoromethoxy)-3-fluorophenyl)propane-1-sulfonamide] | –
– | 7.70 to 8.60 | < 6.00 | CCCS(=O)(=O)Nc1cc(-c2cnc3cc(OC)c(S(=O)(=O)C(C)(C)C)cn23)cnc1OC(F)F [Example 286, N-(5-(6-(tert-butylsulfonyl)-7-methoxyimidazo[1,2-a]pyridin-3-yl)-2-(difluoromethoxy)pyridin-3-yl)propane-1-sulfonamide] | –
– | 7.70 to 8.60 | < 6.00 | CCCS(=O)(=O)Nc1cc(-c2cnc3cc(OC)c(S(=O)(=O)C4CC4)cn23)ccc1OC [Example 288, N-(5-(6-(cyclopropylsulfonyl)-7-methoxyimidazo[1,2-a]pyridin-3-yl)-2-methoxyphenyl)propane-1-sulfonamide] | –
– | 7.70 to 8.60 | 6.00 to 6.60 | CCCS(=O)(=O)Nc1cc(COC)cc(-c2cnc3cc(OC)c(S(=O)(=O)C(C)(C)C)cn23)c1 [Example 289, N-(3-(6-(tert-butylsulfonyl)-7-methoxyimidazo[1,2-a]pyridin-3-yl)-5-(methoxymethyl)phenyl) propane-1-sulfonamide] | –
– | 7.70 to 8.60 | < 6.00 | CCCS(=O)(=O)Nc1cc(-c2cnc3cc(OC)c(S(=O)(=O)C(C)(C)C)cn23)cc(C)c1F [Example 290, N-(5-(6-(tert-butylsulfonyl)-7-methoxyimidazo[1,2-a]pyridin-3-yl)-2-fluoro-3-methylphenyl)propane-1-sulfonamide] | –
– | 7.70 to 8.60 | 6.00 to 6.60 | CCCS(=O)(=O)Nc1cc(-c2cnc3cc(OC)c(S(=O)(=O)C(C)(C)C)cn23)ccc1F [Example 291, N-(5-(6-(tert-butylsulfonyl)-7-methoxyimidazo[1,2-a]pyridin-3-yl)-2-fluorophenyl)propane-1-sulfonamide] | –
– | 7.70 to 8.60 | < 6.00 | CCCS(=O)(=O)Nc1cc(F)cc(-c2cnc3cc(OC)c(S(=O)(=O)C(C)(C)C)cn23)c1F [Example 292, N-(3-(6-(tert-butylsulfonyl)-7-methoxyimidazo[1,2-a]pyridin-3-yl)-2,5-difluorophenyl)propane-1-sulfonamide] | –
– | > 9.00 | > 7.30 | CCS(=O)(=O)Nc1cc(-c2cnc3cc(OC)c(S(=O)(=O)C(C)(C)C)cn23)cc(F)c1OC [Example 294, N-(5-(6-(tert-butylsulfonyl)-7-methoxyimidazo[1,2-a]pyridin-3-yl)-3-fluoro-2-methoxyphenyl)ethane-sulfonamide] | –
– | 8.60 to 9.00 | 6.60 to 7.30 | CCCS(=O)(=O)Nc1cc(OC(F)F)cc(-c2cnc3cc(OC)c(S(=O)(=O)C(C)(C)C)cn23)c1 [Example 295, N-(3-(6-(tert-butylsulfonyl)-7-methoxyimidazo[1,2-a]pyridin-3-yl)-5-(difluoromethoxy)phenyl) propane-1-sulfonamide] | –
– | 7.70 to 8.60 | 6.60 to 7.30 | CC(C)(C)S(=O)(=O)c1ccn2ncc(-c3cc(N)nc(F)c3)c2c1 [Example 298, 4-(5-(tert-Butylsulfonyl)pyrazolo[1,5-a]pyridin-3-yl)-6-fluoropyridin-2-amine] | –
– | < 7.70 | < 6.00 | CC(C)(C)S(=O)(=O)c1ccn2ncc(-c3ccc(F)nc3N)c2c1 [Example 299, 3-(5-(tert-butylsulfonyl)pyrazolo[1,5-a]pyridin-3-yl)-6-fluoropyridin-2-amine] | –

Continued, compound first:

SMILES | pIC50 [2] | pIC50 [1] | pIC50 ([2]; Homo sapiens, THP1-Dual) | pIC50 [1, 3]
CCS(=O)(=O)Nc1cccc(-c2cnc3cc(OC)c(S(=O)(=O)C(C)(C)C)cn23)c1 [Example 276, N-(3-(6-(tert-butylsulfonyl)-7-methoxyimidazo[1,2-a]pyridin-3-yl)phenyl)ethanesulfon-amide] | 6.00 to 6.60 | – | – | 7.70 to 8.60
COc1cc2ncc(-c3cccc(NS(=O)(=O)C(C)(C)C)c3)n2cc1S(=O)(=O)C(C)(C)C [Example 277, N-(3-(6-(tert-butylsulfonyl)-7-methoxyimidazo[1,2-a]pyridin-3-yl)phenyl)-2-methylpropane-2-sulfonamide] | – | 7.70 to 8.60 | > 7.30 | –
COc1cc2ncc(-c3cccc(NS(=O)(=O)C(C)C)c3)n2cc1S(=O)(=O)C(C)(C)C [Example 278, N-(3-(6-(tert-butylsulfonyl)-7-methoxyimidazo[1,2-a]pyridin-3-yl)phenyl)propane-2-sulfonamide] | – | 7.70 to 8.60 | 6.00 to 6.60 | –
COc1cc2ncc(-c3cc(F)c(OC)c(NS(=O)(=O)CC(C)C)c3)n2cc1S(=O)(=O)C(C)(C)C [Example 279, N-(5-(6-(tert-butylsulfonyl)-7-methoxyimidazo[1,2-a]pyridin-3-yl)-3-fluoro-2-methoxyphenyl)-2-methylpropane-1-sulfonamide] | – | > 9.00 | > 7.30 | –
COc1cc2ncc(-c3cccc(NS(=O)(=O)CC(C)C)c3)n2cc1S(=O)(=O)C(C)(C)C [Example 280, N-(3-(6-(tert-butylsulfonyl)-7-methoxyimidazo[1,2-a]pyridin-3-yl)phenyl)-2-methylpropane-1-sulfonamide] | – | 8.60 to 9.00 | 6.00 to 6.60 | –
CCCS(=O)(=O)Nc1cc(-c2cnn3ccc(S(=O)(=O)C(C)(C)C)cc23)ccc1OC [Example 281, N-(5-(5-(tert-butylsulfonyl)pyrazolo[1,5-a]pyridin-3-yl)-2-methoxyphenyl)propane-1-sulfonamide] | – | 7.70 to 8.60 | 6.00 to 6.60 | –
CCCS(=O)(=O)Nc1cc(C#N)cc(-c2cnc3cc(OC)c(S(=O)(=O)C(C)(C)C)cn23)c1 [Example 282, N-(3-(6-(tert-butylsulfonyl)-7-methoxyimidazo[1,2-a]pyridin-3-yl)-5-cyanophenyl)propane-1-sulfonamide] | – | 7.70 to 8.60 | < 6.00 | –
CCCS(=O)(=O)Nc1cc(OC)cc(-c2cnn3ccc(S(=O)(=O)C(C)(C)C)cc23)c1 [Example 283, N-(3-(5-(tert-butylsulfonyl)pyrazolo[1,5-a]pyridin-3-yl)-5-methoxyphenyl)propane-1-sulfonamide] | – | 7.70 to 8.60 | 6.00 to 6.60 | –
COc1cc2ncc(-c3cc(NS(C)(=O)=O)c(OC)c(OC)c3)n2cc1S(=O)(=O)C(C)(C)C [Example 285, N-(5-(6-(tert-butylsulfonyl)-7-methoxyimidazo[1,2-a]pyridin-3-yl)-2,3-dimethoxyphenyl)methane sulfonamide] | – | – | > 7.30 | > 9.00
CCCS(=O)(=O)Nc1ccc(F)c(-c2cnc3cc(OC)c(S(=O)(=O)C(C)(C)C)cn23)c1 [Example 287, N-(3-(6-(tert-butylsulfonyl)-7-methoxyimidazo[1,2-a]pyridin-3-yl)-4-fluorophenyl)propane-1-sulfonamide] | – | – | < 6.00 | < 7.70
CCCS(=O)(=O)Nc1ccc(-c2cnc3cc(OC)c(S(=O)(=O)C(C)(C)C)cn23)cc1OC(F)F [Example 293, N-(4-(6-(tert-butylsulfonyl)-7-methoxyimidazo[1,2-a]pyridin-3-yl)-2-(difluoromethoxy)phenyl) propane-1-sulfonamide] | – | – | < 6.00 | < 7.70
CC(C)(C)S(=O)(=O)c1ccn2ncc(-c3cc(F)nc(NCCCO)c3)c2c1 [Example 296, 3-((4-(5-(tert-butylsulfonyl)pyrazolo [1,5-a]pyridin-3-yl)-6-fluoropyridin-2-yl)amino)propan-1-ol] | – | 8.60 to 9.00 | > 7.30 | –
CC(C)(C)S(=O)(=O)c1ccn2ncc(-c3ccc(N)nc3F)c2c1 [Example 300, 5-(5-(tert-butylsulfonyl)pyrazolo[1,5-a]pyridin-3-yl)-6-fluoropyridin-2-amine] | – | < 7.70 | < 6.00 | –
COc1cc2ncc(-c3cc(F)nc(NCC4CCNCC4)c3)n2cc1S(=O)(=O)C(C)(C)C [Example 301, 4-(6-(tert-butylsulfonyl)-7-methoxyimidazo[1,2-a]pyridin-3-yl)-6-fluoro-N-(piperidin-4-ylmethyl)pyridin-2-amine] | – | 8.60 to 9.00 | 6.60 to 7.30 | –
COc1cc(-c2cnc3cc(OC)c(S(=O)(=O)C(C)(C)C)cn23)cc(F)n1 [Example 302, 6-(tert-butylsulfonyl)-3-(2-fluoro-6-methoxypyridin-4-yl)-7-methoxyimidazo[1,2-a]pyridine] | – | 7.70 to 8.60 | 6.00 to 6.60 | –
CCCS(=O)(=O)Nc1cc(-c2cnc3cc(OC)c(S(=O)(=O)C(C)(C)C)cn23)cc(F)n1 [Example 304, N-(4-(6-(tert-butylsulfonyl)-7-methoxyimidazo[1,2-a]pyridin-3-yl)-6-fluoropyridin-2-yl)propane-1-sulfonamide] | – | – | < 6.00 | < 7.70
COc1cc2ncc(-c3cc(F)c(OC)c(Br)c3)n2cc1S(=O)(=O)C(C)(C)C [Example 305, 3-(3-bromo-5-fluoro-4-methoxyphenyl)-6-(tert-butylsulfonyl)-7-methoxyimidazo[1,2-a]pyridine] | – | 7.70 to 8.60 | < 6.00 | –
COc1cc2ncc(-c3cc(F)c(OCCO)c(Br)c3)n2cc1S(=O)(=O)C(C)(C)C [Example 306, 2-(2-bromo-4-(6-(tert-butylsulfonyl)-7-methoxyimidazo[1,2-a]pyridin-3-yl)-6-fluorophenoxy)ethan-1-ol] | – | 7.70 to 8.60 | 6.60 to 7.30 | –
COc1cc2ncc(-c3cc(F)c(OC)c(N4CC[C@@H](O)C4=O)c3)n2cc1S(=O)(=O)C(C)(C)C [Example 307, (R)-1-(5-(6-(tert-butylsulfonyl)-7-methoxyimidazo[1,2-a]pyridin-3-yl)-3-fluoro-2-methoxyphenyl)-3-hydroxypyrrolidin-2-one] | – | – | < 6.00 | < 7.70
COc1cc2ncc(-c3cc(F)c(OC)c(NCCNC(=O)OC(C)(C)C)c3)n2cc1S(=O)(=O)C(C)(C)C [Example 308, tert-butyl (2-((5-(6-(tert-butylsulfonyl)-7-methoxyimidazo[1,2-a]pyridin-3-yl)-3-fluoro-2-methoxyphenyl)amino)ethyl)carbamate] | – | 8.60 to 9.00 | 6.60 to 7.30 | –
